Here are results for two compounds from patent US20260116867A1, “PROTEOLYSIS TARGETING CHIMERAS FOR HUMAN PREGNANE X RECEPTOR AND FOR DEGRADATION OF GSPT1” (ST. JUDE CHILDREN'S RESEARCH HOSPITAL, priority 2022, published 2026).

One series concerns the target T1, HiBiT-FKBP12^F36V-PXR (Homo sapiens, UniProt O75469+P62942, F37V).
T1 construct: expressed in transfected cells; host or cells: HepG2 cells (transient, Lipofectamine 3000)
Nature of the series: HiBiT assay for degradation of overexpressed protein in HepG2 cells. The format is cell-based. The note with it: FIG. 2C. The procedure:
HepG2 cells (5×10^6 cells/dish) were plated in tissue culture-treated 10 cm dishes in 10 mL EMEM with 10% FBS. The next day, cells were transfected with 5 μg pcDNA3-HiBiT-FKBP^F36V-2xHA-PXR and either 5 μg pcDNA3 vector or 5 μg pcDNA3-HA-CRBN using Lipofectamine 3000 (Thermo Fisher Scientific). After 24 h, cells were trypsinized, resuspended in assay media, and plated in white tissue culture-treated 384-well plates (1.5×10^4 cells/well in 25 μL medium). […] The plates were incubated for 24 h, and the Nano-Glo HiBiT Lytic Detection System (Promega) and an EnVision microplate reader were used to measure HiBiT signal. Results are reported as fold change relative to DMSO control cells.
To establish a method for discovery of PXR degraders in the absence of a known PXR-degrading control, the degradation tag (dTAG) system was used. With this method, a protein of interest (PXR) is fused to a cytosolic prolyl isomerase, FKBP12, with Phe36 mutated to Val (FKBP12^F36V) (FIG. 2A). A PROTAC molecule, dTAG-13 (FIG. 2B), is then used to induce degradation of the fusion protein through recruitment of the CUL4-RBX1-DDB1-CRBN (CRL4^CRBN) E3 ubiquitin ligase, without affecting the cellular FKBP12 protein. An HA tag was added for western blot detection, and a HiBiT tag was fused to the N-terminus to allow high-throughput plate-based quantification of HiBiT-FKBP12^F36V-PXR protein levels (FIG. 2A). […] This was also observed when the HA tag was detected by western blot (FIG. 2D). The HiBiT detection was more sensitive to protein level changes than western blot, and, importantly, overexpression of CRBN was required to achieve dTAG-13-mediated degradation of the overexpressed HiBiT-FKBP12^F36V-PXR protein.
A general note: HiBiT is a short tag that completes a luciferase, so light tracks the accessible tagged protein.

Series [1] relates to SNU—C4 3xFLAG-PXR KI cell lines stably expressing HA-tagged GSPT1^G575N. Nature of the series: Cytotoxicity assay in cells overexpressing degradation-resistant GSPT1 mutant. The note with it: FIG. 7B-C. It counts as cell-based, human. The method, then:
Complete information for all plasmids is included in Table 1 below. […] Lentiviruses for pCDH-GSPT1 or pCDH-GSPT1^G575N were generated in 293T cells using psPAX2 and pMD2.G packaging vectors. The packaging vectors were gifts from Dr. Didier Trono (Addgene plasmid #12259 and 12260).
(§1) The indicated cells (2.5×10^3/well in 40 μL RPMI with 10% FBS) were plated in the 384-well plates, resulting in 0.5% DMSO and the indicated concentrations of chemicals. After 72 h compound treatment, the CellTiter-Glo Luminescent Cell Viability Assay (Promega) and an EnVision microplate reader were used to assess cytotoxicity. Wells containing DMSO alone or 10 μM staurosporine served as negative and positive controls, respectively. The percent cell viability for each well was calculated using equation 1: […]

The target in a further series is T2, PXR (Homo sapiens, UniProt O75469).
T2 sequence (O75469 1-434): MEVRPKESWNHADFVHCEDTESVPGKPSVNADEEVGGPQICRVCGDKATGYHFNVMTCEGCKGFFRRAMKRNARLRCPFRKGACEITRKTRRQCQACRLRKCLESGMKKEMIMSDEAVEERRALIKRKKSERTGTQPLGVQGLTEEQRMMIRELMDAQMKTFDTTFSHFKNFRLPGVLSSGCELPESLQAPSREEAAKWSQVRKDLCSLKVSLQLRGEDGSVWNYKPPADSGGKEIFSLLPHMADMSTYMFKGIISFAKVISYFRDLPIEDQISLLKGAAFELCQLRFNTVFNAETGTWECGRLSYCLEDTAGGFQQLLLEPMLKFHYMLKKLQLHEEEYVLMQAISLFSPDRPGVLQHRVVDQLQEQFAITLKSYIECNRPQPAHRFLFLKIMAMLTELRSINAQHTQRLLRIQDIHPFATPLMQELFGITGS
Nature of the series: Western blot of endogenous 3xFLAG-PXR protein in SNU—C4 3xFLAG-PXR KI cells. The format is cell-based. Details: To assess SJPYT-195 activity against endogenous PXR, CRISPR-Cas9 was used; endogenous in cells. As to conditions: western blot, SNU—C4 3xFLAG-PXR KI cells. The procedure:
The following day, DMSO or compounds were added to result in 0.5% DMSO and the indicated compound concentrations, and cells were incubated for the indicated time points. Cells were lysed and subjected to western blotting as above using antibodies against FLAG (Sigma-Aldrich, cat. #F3165, 1:2,000 dilution), GSPT1 (Abcam, cat. #ab126090, 1:4,000 dilution), and R-Actin (Cell Signaling Technology, cat. #4967, 1:2,000 dilution).
In general terms: In western blotting, separated proteins are transferred to a membrane and probed.

The test system of series [2] is SNU—C4 3xFLAG-PXR KI cells. Nature of the series: Cytotoxicity assay (CellTiter-Glo, 72 h). It counts as cell-based, human. The note with it: SNU—C4 3xFLAG-PXR KI cells, 72 h, FIG. 7A; read-out: half maximal cytotoxic concentration (CC50). The procedure: as §1
Background: Cellular ATP, detected with luciferase, serves as a proxy for viable cell number.

T1 sequence (P62942+O75469 fused P62942:F37V): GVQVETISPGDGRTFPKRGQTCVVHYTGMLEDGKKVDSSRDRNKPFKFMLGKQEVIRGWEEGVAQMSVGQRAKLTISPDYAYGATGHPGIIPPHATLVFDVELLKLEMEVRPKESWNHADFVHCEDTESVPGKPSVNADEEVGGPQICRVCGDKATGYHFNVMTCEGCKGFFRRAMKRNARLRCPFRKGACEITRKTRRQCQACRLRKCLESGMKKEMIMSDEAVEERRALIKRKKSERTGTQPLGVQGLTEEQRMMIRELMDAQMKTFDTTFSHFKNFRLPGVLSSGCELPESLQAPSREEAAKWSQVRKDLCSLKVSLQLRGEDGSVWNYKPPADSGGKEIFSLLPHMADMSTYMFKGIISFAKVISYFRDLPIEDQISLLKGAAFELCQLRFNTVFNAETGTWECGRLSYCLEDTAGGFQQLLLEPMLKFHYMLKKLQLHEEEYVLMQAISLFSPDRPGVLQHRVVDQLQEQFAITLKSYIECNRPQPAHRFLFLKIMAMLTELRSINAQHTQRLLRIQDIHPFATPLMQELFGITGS
T1 sequence (Q96SW2 whole entry partner): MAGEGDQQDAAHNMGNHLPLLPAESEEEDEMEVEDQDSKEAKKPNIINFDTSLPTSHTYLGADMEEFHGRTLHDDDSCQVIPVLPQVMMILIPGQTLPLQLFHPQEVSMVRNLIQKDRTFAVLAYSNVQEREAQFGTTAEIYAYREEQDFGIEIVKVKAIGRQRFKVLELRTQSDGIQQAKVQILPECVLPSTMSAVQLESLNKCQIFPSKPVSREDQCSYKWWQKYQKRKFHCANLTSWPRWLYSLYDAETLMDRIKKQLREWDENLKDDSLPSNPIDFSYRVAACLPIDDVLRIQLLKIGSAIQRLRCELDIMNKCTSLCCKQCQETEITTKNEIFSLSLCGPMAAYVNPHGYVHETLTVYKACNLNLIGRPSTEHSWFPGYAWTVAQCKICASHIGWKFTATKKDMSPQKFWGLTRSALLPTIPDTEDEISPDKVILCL

For the compound `CC[C@H](C(=O)N1CCCC[C@H]1C(=O)O[C@H](CCc1ccc(OC)c(OC)c1)c1ccccc1OCC(=O)NCCCCCCOc1cccc2c1C(=O)N(C1CCC(=O)NC1=O)C2=O)c1cc(OC)c(OC)c(OC)c1` (some centres unmarked) [dTAG-13], the “HiBiT signal, CRBN co-overexpressed” value on HiBiT-FKBP12^F36V-PXR (HepG2 overexpressing HiBiT-FKBP12^F36V-PXR and CRBN) is recorded as “potently reduced HiBiT signal”. At HiBiT-FKBP12^F36V-PXR (HepG2 overexpressing HiBiT-FKBP12^F36V-PXR), the “HiBiT signal, without CRBN co-overexpression” value was “only a slight reduction in HiBiT signal”.

For `Cc1ccc(NC(=O)NCc2ccc3c(c2)CN(C2CCC(=O)NC2=O)C3=O)cc1Cl` (centres unmarked) [CC-885, reference compound], the “cytotoxicity in cells overexpressing GSPT1^G575N” value in series [1] is recorded as “partially resistant”. Besides, on PXR, the “PXR protein level (in words)” value is “also reduced PXR protein”. Moreover, the CC50 in series [2] was 3.3 ± 0.3 nM.
